Data on 1 compound can be found in patent publication US20180296531A1, “STIMULATION OF 11B-HSD2 EXPRESSION TO IMPROVE HORMONAL THERAPY OF STEROID-DEPENDENT DISEASE” (THE CLEVELAND CLINIC FOUNDATION, priority 2015, published 2018).

The subject of one assay is GR protein. Description: Immunoblot of GR protein in prostate cancer cell lines. Format: cell-based, human. The procedure: (§1) For protein analysis, immunoblots were performed as described previously. Li et al., J Clin Endocrinol Metab 98, E1189-1197 (2013). Briefly, total cellular protein was extracted with ice cold RIPA lysis buffer (Sigma-Aldrich) containing protease inhibitors (Roche). 30-50 μg protein was separated by 8% SDS-PAGE gel and then transferred to a nitrocellulose membrane (Millipore). After incubating with the anti-11β-HSD2 antibody (Santa Cruz; 1:3000), anti-11β-HSD1 antibody (Santa Cruz; 1:1000), GR antibody (BD Biosciences; 1:1000), anti-Erlin-2 antibody (Cell Signaling Technology: 1:1000) or anti-AMFR antibody (Proteintech; 1:1000) overnight at 4° C., the appropriate secondary antibody was incubated for 1 hour at room temperature. The chemiluminescent detection system (Thermo Scientific) was used to detect the bands with peroxidase activity. An anti-β-actin antibody (Sigma-Aldrich; 1:5000) was used as a control for sample loading.

A further assay relates to Erlin-2. Description: Immunoblot of Erlin-2 in LAPC4 cells and human prostate tissues. Format: cell-based. The procedure:
as §1
Seven fresh prostate tissue cores (60-80 mg) from Patients #5-#11 were obtained from the peripheral zone of radical prostatectomy specimens at Cleveland Clinic, confirmed to have tumor in or in close proximity to cores by an expert prostate cancer pathologist, minced and aliquoted to two parts. One was treated with 10 nM DHEA plus vehicle, and the other was treated with 10 nM DHEA plus 10 μM Enz. […]

The next assay concerns serum corticosterone. Description: Mass spectrometry of corticosterone in mouse serum. The assay is classed as in vivo. The method, then: Mouse serum analysis. At the endpoint of the xenograft study, mouse serum was collected. 20 μl of mouse serum and internal standard (corticosterone-d8) were precipitated with 200 μl methanol. After centrifugation, the supernatant was transferred to HPLC vials prior to mass spectrometry analysis.
The LC-MS/MS system contains an ultra-pressure liquid chromatography system (Shimadzu Corporation, Japan) which is consisted of two LC-30AD pumps, a DGU-20A5R degasser, a CTO-30A column oven, SIL-30AC autosampler, and a system controller CBM-20A and coupled with a Qtrap 5500 mass spectrometer (AB Sciex). Data acquisition and processing were performed using Analyst® software (version 1.6.2) from ABSciex.
Steroids were ionized using electrospray ionization in positive mode. Quantification of analytes was performed using multiple reaction monitoring. The mass transitions for corticosterone, 11-dehydrocorticosterone, and internal standard are 347.3/121.0, 345.3/121.0, and 355.3/125.0, respectively. Separation of steroids was achieved using a Zorbax Eclipse plus C18 column (Agilent) using mobile phase consisting of (A) 0.2% formic acid in water and (B) 0.2% formic acid in (methanol:acetonitrile, 60:40) with a gradient program at a flow rate of 0.2 ml/min. Sample injection volume was 10 μl.

The test system of assay [1] is 11β-HSD2 protein. Description: Human prostate cancer tissue studies, 11β-HSD2 protein. The following applies: tissues from patients with prostate cancer treated with enzalutamide (in patients or ex vivo 10 μM, 7-8 days). The procedure: All deidentified human tissues were obtained using institutional review board (IRB)-approved protocols. Pre- and post-Enz lymph node tissues were obtained from CT-guided biopsy of metastatic CRPC from Cleveland Clinic (Patient #3) and Dana-Farber Cancer Institute (Patient #4). Pathologic identification of tumor was done by an expert prostate cancer pathologist. Staining of tissues from Patient #4 was done with frozen section slides that were air dried at room temperature for 5 minutes, followed by rehydration with PBS. Immunofluorescence staining was performed as described above. H&E staining was completed by the imagine core of Biomedical Engineering Department in Lerner Research Institute of Cleveland Clinic.
Paired pre-Enz treatment and post-Enz treatment tissues from Patient #1 and Patient #2 were obtained from patients with localized prostate cancer treated with Enz plus ADT for 2 months prior to the second biopsy in a clinical trial (NCT02064582) at the University of Texas Southwestern Medical Center. Biopsies were obtained using image-guidance with a Koelis Urostation. The biopsy cores were minced into pieces and then added into Soft tissue homogenizing CK14 tubes (Betin Technologies) with 100 μl 6M Urea buffer containing protease inhibitors (Sigma Aldrich). Tissue homogenization and immunoblot analysis were performed as described previously. […]

A further assay has as its system AR-regulated transcripts. The assay can be described thus: qPCR of AR-regulated transcripts. Format: cell-based, human. The following applies: LAPC4, 24 hours. The method, then: (§2) LAPC4 cells were treated with Enz for 36 days and then seeded into 12 well plates coated with poly-DL-ornithine at 50% confluence. After incubation overnight, the cells were transfected with 11β-HSD2-FLAG plasmid for 48 hours by using the TranslT®-2020 Transfection Reagent (Mirus) according to the protocol provided by the manufacturer, then maintained in phenol-red-free medium with 5% Charcoal:Dextran-stripped FBS for 48 hours before being treated with the indicated drugs. Total RNA was extracted with a GenElute Mammalian Total RNA miniprep kit (Sigma-Aldrich) and 1 μg RNA was reverse-transcribed to cDNA with the iScript cDNA Synthesis Kit (Bio-Rad). An ABI 7500 Real-Time PCR machine (Applied Biosystems) was used to perform the qPCR analysis, using iTaq Fast SYBR Green Supermix with ROX (Bio-Rad) in 96-well plates at a final reaction volume of 10 μl. The qPCR analysis was carried out in triplicate with suitable primers. Each mRNA transcript was quantitated by normalizing the sample values to RPLP0 and to vehicle treated cells (for steroid treated cells). All gene expression studies were repeated in independent experiments.

For a further assay, the system named is LAPC4 cells. The assay can be described thus: Cell viability assay (CellTiter-Glo). Format: cell-based, human. The procedure: LAPC4 cells or the long-term Enz treated LAPC4 cells were plated in triplicate in 96 well plates coated with poly-DL-ornithine and incubated overnight, then treated with Enz and assayed in triplicate at the time points indicated using CellTiter-Glo (Promega). Viability is normalized to day 0.

The test system of assay [2] is GR, HSD11B2, HSD11B1 transcripts. Description: qPCR of GR, HSD11B2 and HSD11B1 transcripts. Format: cell-based, human. The procedure: as §2
Assay [3] concerns 11β-HSD2 protein. The assay can be described thus: Immunoblot of 11β-HSD2 protein in prostate cancer cell lines. The assay is classed as cell-based, human. The method, then: as §1
Setting [4] is: enzalutamide treated 11β-HSD2 mice.
Where [5] appears, read: enzalutamide treated vector mice.
Where [6] appears, read: long-term Enz treatment, LAPC4 and VCaP.

Regarding `CNC(=O)c1ccc(N2C(=S)N(c3ccc(C#N)c(C(F)(F)F)c3)C(=O)C2(C)C)cc1F` [enzalutamide], the GR protein entry in the assay on GR protein (LAPC4) is “increase in GR protein”; with GR protein (VCaP and MDA-PCa-2b) it was “increase in GR protein”. Also, in the assay with Erlin-2 (LAPC4 cells), the Erlin-2 expression result is on record as “consistently up-regulated”. The “patient tissues with Erlin-2 up-regulation” value in the assay on Erlin-2 (human prostate tissues treated with enzalutamide) is given as 8 of 11. In addition, the “serum corticosterone absolute concentration” value stood at 867 pmol/mL in the assay with serum corticosterone (setting [4]) and 873 pmol/mL in the assay with serum corticosterone (setting [5]). The figures for the “serum percentage of corticosterone” value in the assay on serum corticosterone (setting [4]) and in the assay with serum corticosterone (setting [5]) were 99.85% and 99.87%, respectively. The “patient tissues with loss of 11β-HSD2 with treatment” value with 11β-HSD2 protein [1] is “Nine of 11”. Also, the “expression of AR-regulated genes” value in the assay with AR-regulated transcripts was “suppression of AR-regulated genes”. The “cell growth / viability” value in the assay on LAPC4 cells (LAPC4, after sustained (long-term) enzalutamide treatment) was “Growth recovers”. Moreover, in the assay on LAPC4 cells (LAPC4 in vitro, short-term treatment), the cell viability entry is “suppresses LAPC4 viability”. Also, the “expression of GR, HSD11B2 or HSD11B1 transcripts” value in assay [2] (LAPC4, 24 hours (acute)) is “no acute effect on expression of GR, HSD11B2 or HSD11B1”. Besides, the GR transcript entry in assay [2] (setting [6]) is reported as “GR transcript increases”. Besides, the “HSD11B2 mRNA” value in assay [2] (setting [6]) is listed as “No suppression of HSD11B2 mRNA”. Also, the 11β-HSD2 protein expression entry in the assay on 11β-HSD2 protein [3] (AR-negative DU145 prostate cancer cell line) is recorded as “does not change 11β-HSD2 protein expression”. Moreover, the 11β-HSD2 protein entry with 11β-HSD2 protein [3] (LAPC4), in the assay with 11β-HSD2 protein [3] (MDA-PCa-2b) and in the assay with 11β-HSD2 protein [3] (VCaP) was “Loss of 11β-HSD2 protein” in each case.
